Test results reported in ChEMBL document CHEMBL5113484, “Synthesis and biological evaluation of novel pentanediamide derivatives as S-adenosyl-l-homocysteine hydrolase inhibitors” (Bioorg Med Chem Lett, 2022).

What was measured:
[1] = tested on: MCF7; assay: Cytotoxicity against human MCF7 cells assessed as cell growth inhibition; format: functional, cell-based
[2] = tested on: A549; assay: Cytotoxicity against human A549 cells assessed as cell growth inhibition; format: functional, cell-based
[3] = tested on: HeLa; assay: Cytotoxicity against human HeLa cells assessed as cell growth inhibition; format: functional, cell-based
[4] = tested on: MGC-803; assay: Cytotoxicity against human MGC-803 cells assessed as cell growth inhibition; format: functional, cell-based
[5] = tested on: L02; assay: Cytotoxicity against human L02 cells assessed as cell growth inhibition; format: functional, cell-based
[6] = target: Adenosylhomocysteinase (Homo sapiens, UniProt P23526); assay: Inhibition of SAH hydrolase (unknown origin)
Sequence of Adenosylhomocysteinase (P23526 whole entry): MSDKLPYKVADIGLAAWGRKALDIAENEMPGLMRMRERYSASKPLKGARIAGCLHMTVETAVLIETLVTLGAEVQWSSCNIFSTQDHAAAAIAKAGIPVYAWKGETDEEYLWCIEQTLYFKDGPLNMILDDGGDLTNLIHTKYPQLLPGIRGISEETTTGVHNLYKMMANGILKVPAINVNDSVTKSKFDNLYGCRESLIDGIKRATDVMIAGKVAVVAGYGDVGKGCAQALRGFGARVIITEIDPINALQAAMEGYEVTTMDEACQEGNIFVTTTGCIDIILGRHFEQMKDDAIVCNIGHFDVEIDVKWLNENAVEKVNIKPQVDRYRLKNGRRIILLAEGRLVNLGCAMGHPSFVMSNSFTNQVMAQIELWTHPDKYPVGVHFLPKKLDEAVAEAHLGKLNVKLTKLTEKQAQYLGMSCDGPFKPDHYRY

[7] = Cytotoxicity against African green monkey Vero cells assessed as cell growth inhibition; format: toxicity, cell-based; details: chlorocebus sabaeus
[8] = tested on: Vesicular stomatitis virus; assay: Antiviral activity against Vesicular stomatitis virus assessed as viral growth inhibition; format: functional, organism-based
[9] = tested on: Respiratory syncytial virus; assay: Antiviral activity against Respiratory syncytial virus assessed as viral growth inhibition; format: functional, organism-based; details: human respiratory syncytial virus
[10] = Selectivity index, ratio of CC50 for cytotoxicity against African green monkey Vero cells to EC50 for antiviral activity against Vesicular stomatitis virus; format: toxicity, cell-based; details: read-out: Ratio CC50/EC50
[11] = Selectivity index, ratio of CC50 for cytotoxicity against African green monkey Vero cells to EC50 for antiviral activity against Respiratory syncytial virus; format: toxicity, cell-based; details: read-out: Ratio CC50/EC50

SMILES: O=C(CC(CC(=O)NC1Cc2ccccc2C1)c1ccccc1)NCCN1CCCC1 (stereo not given)
- IC50 [1]: > 100 µM
- IC50 [2]: > 100 µM
- IC50 [3]: > 100 µM
- IC50 [4]: > 100 µM
- IC50 [5]: > 100 µM

SMILES: CN(C(=O)CC(CC(=O)NCCN1CCCC1)c1ccc(Cl)cc1)C1Cc2ccccc2C1 (stereo not given)
- IC50 [1]: 76.7 µM
- IC50 [2]: 56 µM
- IC50 [3]: 55.4 µM
- IC50 [4]: 83.8 µM
- IC50 [5]: 81.5 µM

SMILES: CCNCCNC(=O)CC(CC(=O)N(CC)C1Cc2ccccc2C1)c1ccc(Cl)cc1 (stereo not given)
- IC50 [6]: 3.78 µM
- IC50 [1]: 14.4 µM
- IC50 [2]: 19.4 µM
- IC50 [3]: 40.5 µM
- IC50 [4]: 43.8 µM
- IC50 [5]: 66.2 µM
- CC50 [7]: 144 µM
- EC50 [8]: > 100 µM
- EC50 [9]: > 100 µM

SMILES: CCNCCNC(=O)CC(CC(=O)NC1Cc2ccccc2C1)c1ccc(Cl)cc1 (stereo not given)
- IC50 [1]: > 100 µM
- IC50 [2]: 52 µM
- IC50 [3]: 68.4 µM
- IC50 [4]: > 100 µM
- IC50 [5]: 83.7 µM

SMILES: CCN(C(=O)CC(CC(=O)NCCN1CCCC1)c1ccccc1)C1Cc2ccccc2C1 (stereo not given)
- IC50 [1]: > 100 µM
- IC50 [2]: > 100 µM
- IC50 [3]: > 100 µM
- IC50 [4]: > 100 µM
- IC50 [5]: > 100 µM

SMILES: CCNCCNC(=O)CC(CC(=O)NC1Cc2ccccc2C1)c1ccccc1 (stereo not given)
- IC50 [1]: > 100 µM
- IC50 [2]: > 100 µM
- IC50 [3]: > 100 µM
- IC50 [4]: > 100 µM
- IC50 [5]: > 100 µM

SMILES: CCN(CC)CCNC(=O)CC(CC(=O)NC1Cc2ccccc2C1)c1ccccc1 (stereo not given)
- IC50 [1]: > 100 µM
- IC50 [2]: 82.4 µM
- IC50 [3]: > 100 µM
- IC50 [4]: > 100 µM
- IC50 [5]: > 100 µM

SMILES: O=C(CC(CC(=O)NC1Cc2ccccc2C1)c1ccc(Cl)cc1)NCCN1CCCCC1 (stereo not given)
- IC50 [1]: 35.5 µM
- IC50 [2]: 28 µM
- IC50 [3]: 86.2 µM
- IC50 [4]: 89.1 µM
- IC50 [5]: 70.4 µM

SMILES: O=C(CC(CC(=O)NC1Cc2ccccc2C1)c1ccc(Cl)cc1)NCCN1CCCC1 (stereo not given)
- IC50 [1]: > 100 µM
- IC50 [2]: 50.9 µM
- IC50 [3]: 77.3 µM
- IC50 [4]: > 100 µM
- IC50 [5]: 89.4 µM

SMILES: CCN(CC)CCNC(=O)CC(CC(=O)N(C)C1Cc2ccccc2C1)c1ccccc1 (stereo not given)
- IC50 [1]: > 100 µM
- IC50 [2]: > 100 µM
- IC50 [3]: > 100 µM
- IC50 [4]: > 100 µM
- IC50 [5]: > 100 µM

SMILES: CCN(C(=O)CC(CC(=O)NCCN1CCCCC1)c1ccccc1)C1Cc2ccccc2C1 (stereo not given)
- IC50 [1]: > 100 µM
- IC50 [2]: 84.5 µM
- IC50 [3]: > 100 µM
- IC50 [4]: > 100 µM
- IC50 [5]: > 100 µM

SMILES: O=C(CC(CC(=O)NC1Cc2ccccc2C1)c1ccccc1)NCCN1CCCCC1 (stereo not given)
- IC50 [1]: > 100 µM
- IC50 [2]: > 100 µM
- IC50 [3]: > 100 µM
- IC50 [4]: > 100 µM
- IC50 [5]: > 100 µM

SMILES: O=c1[nH]cc(F)c(=O)[nH]1 [FLUOROURACIL]
- IC50 [1]: 48.5 µM
- IC50 [4]: 38.5 µM
- IC50 [5]: 46.5 µM

SMILES: CNCCNC(=O)CC(CC(=O)NC1Cc2ccccc2C1)c1ccc(Cl)cc1 (stereo not given)
- IC50 [1]: > 100 µM
- IC50 [2]: > 100 µM
- IC50 [3]: > 100 µM
- IC50 [4]: > 100 µM
- IC50 [5]: > 100 µM

SMILES: CN(C(=O)CC(CC(=O)NCCN1CCCC1)c1ccccc1)C1Cc2ccccc2C1 (stereo not given)
- IC50 [1]: > 100 µM
- IC50 [2]: > 100 µM
- IC50 [3]: > 100 µM
- IC50 [4]: > 100 µM
- IC50 [5]: > 100 µM

SMILES: Nc1nccc2c1ncn2[C@@H]1O[C@H](CO)[C@@H](O)[C@H]1O
- IC50 [6]: 5.39 µM
- IC50 [1]: 40.3 µM
- IC50 [2]: 57.4 µM
- IC50 [4]: 41.1 µM
- IC50 [5]: 94.4 µM

SMILES: CCN(CC)CCNC(=O)CC(CC(=O)NC1Cc2ccccc2C1)c1ccc(Cl)cc1 (stereo not given)
- IC50 [6]: 3.68 µM
- IC50 [1]: 75 µM
- IC50 [2]: 48.6 µM
- IC50 [3]: 50.5 µM
- IC50 [4]: > 100 µM
- IC50 [5]: 76.7 µM

SMILES: CCNCCNC(=O)CC(CC(=O)N(CC)C1Cc2ccccc2C1)c1ccccc1 (stereo not given)
- IC50 [6]: 3.48 µM
- IC50 [1]: > 100 µM
- IC50 [2]: > 100 µM
- IC50 [3]: > 100 µM
- IC50 [4]: > 100 µM
- IC50 [5]: > 100 µM

SMILES: CCN(CC)CCNC(=O)CC(CC(=O)N(C)C1Cc2ccccc2C1)c1ccc(Cl)cc1 (stereo not given)
- IC50 [1]: 28.8 µM
- IC50 [2]: 21.4 µM
- IC50 [3]: 48.1 µM
- IC50 [4]: 81.2 µM
- IC50 [5]: 56.5 µM

SMILES: CCN(CC)CCNC(=O)CC(CC(=O)N(CC)C1Cc2ccccc2C1)c1ccc(Cl)cc1 (stereo not given)
- IC50 [6]: 3.72 µM
- IC50 [1]: 23 µM
- IC50 [2]: 18.4 µM
- IC50 [3]: 24.3 µM
- IC50 [4]: 44.9 µM
- IC50 [5]: 78.4 µM
- CC50 [7]: 91.8 µM
- EC50 [8]: 38.9 µM
- EC50 [9]: 91.1 µM
- selectivity ratio [10]: 2.36
- selectivity ratio [11]: 1.01

SMILES: CCN(C(=O)CC(CC(=O)NCCN1CCCC1)c1ccc(Cl)cc1)C1Cc2ccccc2C1 (stereo not given)
- IC50 [1]: 20.4 µM
- IC50 [2]: 22.6 µM
- IC50 [3]: 36.4 µM
- IC50 [4]: 55.5 µM
- IC50 [5]: 54.2 µM

SMILES: CCN(C(=O)CC(CC(=O)NCCN1CCCCC1)c1ccc(Cl)cc1)C1Cc2ccccc2C1 (stereo not given)
- IC50 [6]: 3.58 µM
- IC50 [1]: 16.5 µM
- IC50 [2]: 13.2 µM
- IC50 [3]: 20.4 µM
- IC50 [4]: 21.2 µM
- IC50 [5]: 84.2 µM
- CC50 [7]: 187 µM
- EC50 [8]: > 100 µM
- EC50 [9]: 27.4 µM
- selectivity ratio [11]: 6.84

SMILES: Cc1ccc(C(CC(=O)NCCN2CCCCC2)CC(=O)NC2Cc3ccccc3C2)cc1 (stereo not given)
- IC50 [1]: > 100 µM
- IC50 [2]: > 100 µM
- IC50 [3]: > 100 µM
- IC50 [4]: > 100 µM
- IC50 [5]: > 100 µM
